Patent US9434743B2, “Indazole derivatives” (TAKEDA PHARMACEUTICAL COMPANY LIMITED, priority 2012, dated 2016)

How the values were obtained:
[1] = target: T1, human MetAP2 enzyme (Homo sapiens, UniProt P50579); test: MetAP2 enzyme assay, enzyme complexed with manganese ions; conditions: MetAP2 Mn pIC50, MetAP2 enzyme complexed with manganese ions; Met-AMC substrate at Km
[2] = target: T1, human MetAP2 enzyme; test: MetAP2 enzyme assay, enzyme complexed with cobalt ions; conditions: MetAP2 Co pIC50, MetAP2 enzyme complexed with cobalt ions; Met-AMC substrate at Km

T1 sequence (P50579 whole entry): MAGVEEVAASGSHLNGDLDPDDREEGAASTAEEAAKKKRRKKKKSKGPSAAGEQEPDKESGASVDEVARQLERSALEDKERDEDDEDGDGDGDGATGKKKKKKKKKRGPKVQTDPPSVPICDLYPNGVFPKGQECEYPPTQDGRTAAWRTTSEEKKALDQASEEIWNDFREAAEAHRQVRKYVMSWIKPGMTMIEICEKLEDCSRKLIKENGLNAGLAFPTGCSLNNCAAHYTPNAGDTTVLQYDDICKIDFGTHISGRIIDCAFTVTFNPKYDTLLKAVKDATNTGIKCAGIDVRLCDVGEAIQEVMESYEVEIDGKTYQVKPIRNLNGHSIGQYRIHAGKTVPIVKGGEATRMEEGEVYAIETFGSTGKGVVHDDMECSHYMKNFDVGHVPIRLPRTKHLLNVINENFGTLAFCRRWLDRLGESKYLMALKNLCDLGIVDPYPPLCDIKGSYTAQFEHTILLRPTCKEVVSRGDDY

| SMILES | IC50 [1] [nM] | IC50 [2] [nM] |
| --- | --- | --- |
| FC(F)(F)COc1ncccc1-c1cc(C(F)(F)F)cc2[nH]ncc12 [Example 100, 4-(2-(2,2,2-trifluoroethoxy)pyridin-3-yl)-6-(trifluoromethyl)-1H-indazole] | 15.8 | 200 |
| CCNC(=O)c1cccc(-c2cc(C(F)(F)F)cc3[nH]ncc23)c1 [Example 88, N-ethyl-3-(6-(trifluoromethyl)-1H-indazol-4-yl)benzamide] | 3.98 | 79.4 |
| O=C(c1cccc(-c2cc(C(F)(F)F)cc3[nH]ncc23)c1)N1CCCC1 [Example 85, pyrrolidin-1-yl(3-(6-(trifluoromethyl)-1H-indazol-4-yl)phenyl)methanone] | 6.31 | 79.4 |
| Cc1cc(Cn2nc(C)c(-c3cc(C(F)(F)F)cc4[nH]ncc34)c2CO)on1 (single isomer, unassigned) [Example 412, (3-methyl-1-((3-methylisoxazol-5-yl)methyl)-4-(6-(trifluoromethyl)-1H-indazol-4-yl)-1H-pyrazol-5-yl)methanol] | 3.98 | 15.8 |
| Cc1nc(N2C[C@H]3C[C@H]3C2C(N)=O)ncc1-c1cc(C(F)(F)F)cc2[nH]ncc12 (stereo partly drawn) [Example 415, (1R,5S)-3-(4-methyl-5-(6-(trifluoromethyl)-1H-indazol-4-yl)pyrimidin-2-yl)-3-azabicyclo[3.1.0]hexane-2-carboxamide] | 7.94 | 10 |
| FC(F)(F)c1cc(-c2ccc3[nH]cnc3c2)c2cn[nH]c2c1 [Example 17, 4-(1H-benzo[d]imidazol-5-yl)-6-(trifluoromethyl)-1H-indazole] | 7.94 | 20 |
| FC(F)(F)c1cc(-c2ccc(OCCN3CCOCC3)cc2)c2cn[nH]c2c1 [Example 281, 4-(2-(4-(6-(trifluoromethyl)-1H-indazol-4-yl)phenoxy)ethyl)morpholine] | 7.94 | 63.1 |
| O=C(NCC(O)CO)c1c[nH]c(=O)c(-c2cc(C(F)(F)F)cc3[nH]ncc23)c1 (stereo not drawn) [Example 337, N-(2,3-dihydroxypropyl)-6-oxo-5-(6-(trifluoromethyl)-1H-indazol-4-yl)-1,6-dihydropyridine-3-carboxamide] | 15.8 | 398 |
| COc1ncc(-c2cc(C(F)(F)F)cc3[nH]ncc23)cc1C(N)=O [Example 232, 2-methoxy-5-(6-(trifluoromethyl)-1H-indazol-4-yl)nicotinamide] | 6.31 | 63.1 |
| CNC(=O)c1ccc(OC)c(-c2cc(C(F)(F)F)cc3[nH]ncc23)c1 [Example 181, 4-methoxy-N-methyl-3-(6-(trifluoromethyl)-1H-indazol-4-yl)benzamide] | 5.01 | 15.8 |
| CCOCn1ccnc1-c1cc(C(F)(F)F)cc2[nH]ncc12 [Example 145, 4-(1-(ethoxymethyl)-1H-imidazol-2-yl)-6-(trifluoromethyl)-1H-indazole] | 631 | 3980 |
| Cn1ccc2c(-c3cc(C(F)(F)F)cc4[nH]ncc34)cccc21 [Example 77, 4-(1-methyl-1H-indol-4-yl)-6-(trifluoromethyl)-1H-indazole] | 6.31 | 79.4 |
| O=c1[nH]cnc2[nH]nc(-c3cc(C(F)(F)F)cc4[nH]ncc34)c12 [Example 156, 3-(6-(trifluoromethyl)-1H-indazol-4-yl)-1H-pyrazolo[3,4-d]pyrimidin-4(5H)-one] | 31.6 | 501 |
| COc1nccc(C)c1-c1cc(C(F)(F)F)cc2[nH]ncc12 [Example 123, 4-(2-methoxy-4-methylpyridin-3-yl)-6-(trifluoromethyl)-1H-indazole] | 31.6 | 63.1 |
| CS(=O)(=O)Nc1ccccc1-c1cc(C(F)(F)F)cc2[nH]ncc12 [Example 44, N-(2-(6-(trifluoromethyl)-1H-indazol-4-yl)phenyl)methanesulfonamide] | 5.01 | 50.1 |
| FC(F)(F)c1cc(-c2cccc3cc[nH]c23)c2cn[nH]c2c1 [Example 76, 4-(1H-indol-7-yl)-6-(trifluoromethyl)-1H-indazole] | 39.8 | 398 |
| Cc1n[nH]cc1-c1cc(C(F)(F)F)cc2[nH]ncc12 [Example 22, 4-(3-methyl-1H-pyrazol-4-yl)-6-(trifluoromethyl)-1H-indazole] | 5.01 | 39.8 |
| OCc1ccc(-c2cc(C(F)(F)F)cc3[nH]ncc23)cc1 [Example 11, (4-(6-(trifluoromethyl)-1H-indazol-4-yl)phenyl)methanol] | 3.16 | 31.6 |
| CNC(=O)c1ccc(F)cc1-c1cc(C(F)(F)F)cc2[nH]ncc12 [Example 102, 4-fluoro-N-methyl-2-(6-(trifluoromethyl)-1H-indazol-4-yl)benzamide] | 79.4 | 631 |
| O=S(=O)(NCCO)c1ccc(-c2cc(C(F)(F)F)cc3[nH]ncc23)cn1 [Example 378, N-(2-hydroxyethyl)-5-(6-(trifluoromethyl)-1H-indazol-4-yl)pyridine-2-sulfonamide] | 5.01 | 63.1 |
| C[C@H](O)CNc1ncc(-c2cc(C(F)(F)F)cc3[nH]ncc23)cn1 [Example 208, (S)-1-(5-(6-(trifluoromethyl)-1H-indazol-4-yl)pyrimidin-2-ylamino)propan-2-ol] | 6.31 | 79.4 |

| SMILES | IC50 [1] [nM] | IC50 [2] [nM] |
| --- | --- | --- |
| CS(=O)(=O)c1ccc(-c2cc(C(F)(F)F)cc3[nH]ncc23)cc1 [Example 347, 4-(4-(methylsulfonyl)phenyl)-6-(trifluoromethyl)-1H-indazole] | 6.31 | 63.1 |
| Cc1nn(CCN)c(C)c1-c1cc(C(F)(F)F)cc2[nH]ncc12 [Example 176, 2-(3,5-dimethyl-4-(6-(trifluoromethyl)-1H-indazol-4-yl)-1H-pyrazol-1-yl)ethanamine] | 12.6 | 39.8 |
| NC(=O)c1ccc(-c2cc(C(F)(F)F)cc3[nH]ncc23)cn1 [Example 251, 5-(6-(trifluoromethyl)-1H-indazol-4-yl)picolinamide] | 5.01 | 63.1 |
| Cn1ncc2ccc(-c3cc(C(F)(F)F)cc4[nH]ncc34)cc21 [Example 24, 1′-methyl-6-(trifluoromethyl)-1H,1′H-4,6′-biindazole] | 12.6 | 31.6 |
| FC(F)(F)c1cc(-c2cn[nH]c2)c2cn[nH]c2c1 [Example 23, 4-(1H-pyrazol-4-yl)-6-(trifluoromethyl)-1H-indazole] | 6.31 | 100 |
| Cc1nc2[nH]cnc2cc1-c1cc(C(F)(F)F)cc2[nH]ncc12 [Example 195, 5-methyl-6-(6-(trifluoromethyl)-1H-indazol-4-yl)-3H-imidazo[4,5-b]pyridine] | 6.31 | 25.1 |
| Cn1c(-c2cc(C(F)(F)F)cc3[nH]ncc23)cc2ccccc21 [Example 51, 4-(1-methyl-1H-indol-2-yl)-6-(trifluoromethyl)-1H-indazole] | 100 | 2510 |
| Cc1cc(=O)[nH]cc1-c1cc(C(F)(F)F)cc2[nH]ncc12 [Example 390, 4-methyl-5-(6-(trifluoromethyl)-1H-indazol-4-yl)pyridin-2(1H)-one] | 6.31 | 39.8 |
| FC(F)(F)c1cc(-c2cnc3[nH]ccc3c2)c2cn[nH]c2c1 [Example 59, 4-(1H-pyrrolo[2,3-b]pyridin-5-yl)-6-(trifluoromethyl)-1H-indazole] | 12.6 | 79.4 |
| NC(=O)Cn1cc(-c2cc(C(F)(F)F)cc3[nH]ncc23)cn1 [Example 264, 2-(4-(6-(trifluoromethyl)-1H-indazol-4-yl)-1H-pyrazol-1-yl)acetamide] | 6.31 | 100 |
| Cc1cc(-c2cc(C(F)(F)F)cc3[nH]ncc23)n(C)n1 [Example 126, 4-(1,3-dimethyl-1H-pyrazol-5-yl)-6-(trifluoromethyl)-1H-indazole] | 7.94 | 50.1 |
| FC(F)(F)c1cc(-c2cccc(-n3cccn3)c2)c2cn[nH]c2c1 [Example 69, 4-(3-(1H-pyrazol-1-yl)phenyl)-6-(trifluoromethyl)-1H-indazole] | 6.31 | 158 |
| Cc1nnc(-c2ccc(-c3cc(C(F)(F)F)cc4[nH]ncc34)cc2)o1 [Example 120, 2-methyl-5-(4-(6-(trifluoromethyl)-1H-indazol-4-yl)phenyl)-1,3,4-oxadiazole] | 15.8 | 63.1 |
| Cc1nc(C#N)ccc1-c1cc(C(F)(F)F)cc2[nH]ncc12 [Example 377, 6-methyl-5-(6-(trifluoromethyl)-1H-indazol-4-yl)picolinonitrile] | 5.01 | 50.1 |
| COc1ccc(CC(=O)N2CCOCC2)cc1-c1cc(C(F)(F)F)cc2[nH]ncc12 [Example 316, 2-(4-methoxy-3-(6-(trifluoromethyl)-1H-indazol-4-yl)phenyl)-1-morpholinoethanone] | 10 | 50.1 |
| CN(C)C(=O)c1ccccc1-c1cc(C(F)(F)F)cc2[nH]ncc12 [Example 47, N,N-dimethyl-2-(6-(trifluoromethyl)-1H-indazol-4-yl)benzamide] | 50.1 | 501 |
| Cc1nn(C)c2cc(-c3cc(C(F)(F)F)cc4[nH]ncc34)ccc12 [Example 68, 1′,3′-dimethyl-6-(trifluoromethyl)-1H,1′H-4,6′-biindazole] |  | 25.1 |
| Cc1c(-c2cc(C(F)(F)F)cc3[nH]ncc23)cnn1-c1ccccc1 [Example 70, 4-(5-methyl-1-phenyl-1H-pyrazol-4-yl)-6-(trifluoromethyl)-1H-indazole] |  | 39.8 |
| Cc1nn(C)c2cc(-c3cc(C(F)(F)F)cc4[nH]ncc34)ccc12 [Example 67, 1′,3′-dimethyl-6-(trifluoromethyl)-1H,1′H-4,6′-biindazole] |  | 20 |
| Cc1c(-c2cc(C(F)(F)F)cc3[nH]ncc23)cnn1-c1ccccc1 [Example 71, 4-(5-methyl-1-phenyl-1H-pyrazol-4-yl)-6-(trifluoromethyl)-1H-indazole] |  | 100 |
